# Measurements as given in PubChem BioAssay (NCI).
#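 GI50: concentration for 50% inhibition of growth. TGI marks complete inhibition of growth.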
# Key:
# Assay in all cases: NCI anticancer screen, dose series, 384-well format
# EKVX NSCLC = system: EKVX NSCLC
# HOP-92 NSCLC = system: HOP-92 NSCLC
# CCRF-CEM leukemia = system: CCRF-CEM leukemia
# A549 NSCLC = system: A549 NSCLC
# SN12C renal = system: SN12C renal
# SK-MEL-2 melanoma = system: SK-MEL-2 melanoma
# NCI-H322M lung = system: NCI-H322M lung
# RXF 393 renal = system: RXF 393 renal
# MDA-MB-231 breast = system: MDA-MB-231 breast
# NCI/ADR-RES ovarian = system: NCI/ADR-RES ovarian
# HCT-116 colon = system: HCT-116 colon
# SF-295 CNS = system: SF-295 CNS
# LOX IMVI melanoma = system: LOX IMVI melanoma
# OVCAR-8 ovarian = system: OVCAR-8 ovarian
# SNB-75 CNS = system: SNB-75 CNS
# SK-MEL-5 melanoma = system: SK-MEL-5 melanoma
# SK-OV-3 ovarian = system: SK-OV-3 ovarian
# HCT-15 colon = system: HCT-15 colon
# UACC-62 melanoma = system: UACC-62 melanoma
# SK-MEL-28 melanoma = system: SK-MEL-28 melanoma
# U251 glioblastoma = system: U251 glioblastoma
# K-562 leukemia = system: K-562 leukemia
# SF-539 CNS = system: SF-539 CNS
# TK-10 renal = system: TK-10 renal
# PC-3 prostate = system: PC-3 prostate
# T-47D breast = system: T-47D breast
# SW-620 colon = system: SW-620 colon
# MDA-MB-435 melanoma = system: MDA-MB-435 melanoma
# NCI-H226 lung = system: NCI-H226 lung
# HT29 colon = system: HT29 colon
# NCI-H460 NSCLC = system: NCI-H460 NSCLC
# UACC-257 melanoma = system: UACC-257 melanoma
# NCI-H522 lung = system: NCI-H522 lung
# MALME-3M melanoma = system: MALME-3M melanoma
# SNB-19 CNS = system: SNB-19 CNS
# CAKI-1 renal = system: CAKI-1 renal
# OVCAR-4 ovarian = system: OVCAR-4 ovarian
# BT-549 breast = system: BT-549 breast
# UO-31 renal = system: UO-31 renal
# MOLT-4 leukemia = system: MOLT-4 leukemia
# HS 578T breast = system: HS 578T breast
# MCF7 breast = system: MCF7 breast
# IGROV1 ovarian = system: IGROV1 ovarian
# KM12 colon = system: KM12 colon
# ACHN renal = system: ACHN renal
# SR leukemia = system: SR leukemia
# SF-268 CNS = system: SF-268 CNS
smiles,measurement,setting,value
O=c1[nH]nc2c3c(cccc13)NC(CN1Cc3ccccc3C1)=N2,GI50,EKVX NSCLC,3.1 µM
same,TGI,EKVX NSCLC,> 100 µM
same,GI50,HOP-92 NSCLC,2.5 µM
same,TGI,HOP-92 NSCLC,16.9 µM
same,GI50,CCRF-CEM leukemia,3.91 µM
same,TGI,CCRF-CEM leukemia,15.2 µM
same,GI50,A549 NSCLC,5.19 µM
same,TGI,A549 NSCLC,67.5 µM
same,GI50,SN12C renal,4.09 µM
same,TGI,SN12C renal,> 39.4 µM
same,GI50,SK-MEL-2 melanoma,> 87.1 µM
same,TGI,SK-MEL-2 melanoma,> 100 µM
same,GI50,NCI-H322M lung,5.1 µM
same,TGI,NCI-H322M lung,> 45.7 µM
same,GI50,RXF 393 renal,2.26 µM
same,TGI,RXF 393 renal,7.28 µM
same,GI50,MDA-MB-231 breast,2.81 µM
same,TGI,MDA-MB-231 breast,14.5 µM
same,GI50,NCI/ADR-RES ovarian,9.41 µM
same,TGI,NCI/ADR-RES ovarian,> 100 µM
same,GI50,HCT-116 colon,8.67 µM
same,TGI,HCT-116 colon,> 100 µM
same,GI50,SF-295 CNS,10.7 µM
same,TGI,SF-295 CNS,> 100 µM
same,GI50,LOX IMVI melanoma,6.61 µM
same,TGI,LOX IMVI melanoma,> 61.4 µM
same,GI50,OVCAR-8 ovarian,5.38 µM
same,TGI,OVCAR-8 ovarian,> 100 µM
same,GI50,SNB-75 CNS,2.32 µM
same,TGI,SNB-75 CNS,18.9 µM
same,GI50,SK-MEL-5 melanoma,3.42 µM
same,TGI,SK-MEL-5 melanoma,> 56.2 µM
same,GI50,SK-OV-3 ovarian,3.49 µM
same,TGI,SK-OV-3 ovarian,> 62.2 µM
same,GI50,HCT-15 colon,8.44 µM
same,TGI,HCT-15 colon,> 100 µM
same,GI50,UACC-62 melanoma,7.14 µM
same,TGI,UACC-62 melanoma,> 100 µM
same,GI50,SK-MEL-28 melanoma,5.99 µM
same,TGI,SK-MEL-28 melanoma,27.6 µM
same,GI50,U251 glioblastoma,7.61 µM
same,TGI,U251 glioblastoma,> 100 µM
same,GI50,K-562 leukemia,7.51 µM
same,TGI,K-562 leukemia,> 100 µM
same,GI50,SF-539 CNS,20.9 µM
same,TGI,SF-539 CNS,> 100 µM
same,GI50,TK-10 renal,2.7 µM
same,TGI,TK-10 renal,17.1 µM
same,GI50,PC-3 prostate,4.32 µM
same,TGI,PC-3 prostate,57.5 µM
same,GI50,T-47D breast,22.8 µM
same,TGI,T-47D breast,> 100 µM
same,GI50,SW-620 colon,8.37 µM
same,TGI,SW-620 colon,> 100 µM
same,GI50,MDA-MB-435 melanoma,3.74 µM
same,TGI,MDA-MB-435 melanoma,15.6 µM
same,GI50,NCI-H226 lung,3.21 µM
same,TGI,NCI-H226 lung,52 µM
same,GI50,HT29 colon,4.31 µM
same,TGI,HT29 colon,26.3 µM
same,GI50,NCI-H460 NSCLC,5.18 µM
same,TGI,NCI-H460 NSCLC,> 71.8 µM
same,GI50,UACC-257 melanoma,> 100 µM
same,TGI,UACC-257 melanoma,> 100 µM
same,GI50,NCI-H522 lung,2.49 µM
same,TGI,NCI-H522 lung,7.83 µM
same,GI50,MALME-3M melanoma,6 µM
same,TGI,MALME-3M melanoma,> 100 µM
same,GI50,SNB-19 CNS,48 µM
same,TGI,SNB-19 CNS,> 100 µM
same,GI50,CAKI-1 renal,2.03 µM
same,TGI,CAKI-1 renal,> 100 µM
same,GI50,OVCAR-4 ovarian,2.14 µM
same,TGI,OVCAR-4 ovarian,12 µM
same,GI50,BT-549 breast,6.22 µM
same,TGI,BT-549 breast,39.7 µM
same,GI50,UO-31 renal,11.4 µM
same,TGI,UO-31 renal,> 100 µM
same,GI50,MOLT-4 leukemia,2.5 µM
same,TGI,MOLT-4 leukemia,7.73 µM
same,GI50,HS 578T breast,5.78 µM
same,TGI,HS 578T breast,> 100 µM
same,GI50,MCF7 breast,7.24 µM
same,TGI,MCF7 breast,> 100 µM
same,GI50,IGROV1 ovarian,3.55 µM
same,TGI,IGROV1 ovarian,70.6 µM
same,GI50,KM12 colon,6.04 µM
same,TGI,KM12 colon,> 62.4 µM
same,GI50,ACHN renal,5.5 µM
same,TGI,ACHN renal,> 78.1 µM
same,GI50,SR leukemia,2.36 µM
same,TGI,SR leukemia,8.2 µM
same,GI50,SF-268 CNS,4.68 µM
same,TGI,SF-268 CNS,37.2 µM
